Tested on: rumen metabolism
Assay: not given
Conditions: known prior art, administered to ruminant animals; cited from earlier work

Row | Structure (SMILES) | effect on rumen metabolism (reducing methane production)
1 | O=CC(Cl)(Cl)Cl [chloral] | beneficial effect on rumen metabolism
2 | NC(=O)C(Cl)(Cl)Cl [trichloroacetamide] | beneficial effect on rumen metabolism

Tested on: methane production from ruminal fluid
Assay: in vitro assay of inhibition of methane production from ruminal fluid
Format: cell-based, steers (pooled rumen fluid)
Conditions: at 1 μg./ml.; in vitro rumen fluid, 39° C., 15-16 hours
Description: Rumen fluid is collected on a regular routine basis from two steers, which are fed on the same hay-plus-concentrate diet. Sampling time is standardised as far as possible, and the fluid from the two animals is pooled on a 50/50 basis. Large particulate matter is removed by filtering the pooled fluid through four layers of muslin cloth. The filtrate is then diluted in the ratio of one volume of filtrate to three volumes of an artificial rumen fluid (prepared as described by G. L. Bales et al., Journal of Dairy Science, 1976, volume 59, page 1850, but omitting acetic acid), and the pH of the mixture is adjusted to 6.9-7.0 with saturated aqueous sodium carbonate solution. Aliquots (50 ml.) of this mixture are dispensed into 100 ml. conical flasks containing dried ground hay (0.5 g.), and each flask is used to test a test compound at a particular concentration.
The test compound is added to the conical flask as a solution in ethanol, the flask is flushed with carbon dioxide gas, stoppered with a suba-seal, and incubated at 39° C. for 15-16 hours. After one hour, a narrow bore needle is inserted through the suba-seal to relieve the gas pressure, and the needle is withdrawn 30 minutes before the incubation is ended. Fermentation is then stopped by placing the flask in ice, and after 15 minutes cooling, the gas over the liquid is analysed for methane by gas chromatography, and the concentration of the test compound required to produce a 50% reduction in methane production (ED50 in μg./ml.) is calculated.
The test of methane inhibition described in Example 12 was repeated for various other compounds, to give the results shown below. The results are expressed as the percentage inhibition of methane production caused by 1 μg./ml. of a test compound, except for those compounds indicated by *, for which 3 μg./ml. was used.

Row | Structure (SMILES) | inhibition at 1 µg/mL [%]
3 | O=C1NC(C(Cl)(Cl)Cl)Oc2ccc(C=NO)cc21 (stereo not shown) [drawing 8; R1=H; R3=HO . N:CH; R5=H, 3,4-dihydro-6-hydroxyiminomethyl-2-trichloromethyl-2-H-benzo[e]-[1,3]-oxazin-4-one] | 41
4 | Nc1ccc2c(c1)C(=O)NC(C(Cl)(Cl)Cl)O2 (stereo not shown) [drawing 8; R1=H; R3=NH2; R5=H, 6-amino-3,4-dihydro-2-trichloromethyl-2H-benzo[e]-[1,3]-oxazin-4-one] | 98
5 | O=C1NC(C(Cl)(Cl)Cl)Oc2ccc(S(=O)(=O)O)cc21 (stereo not shown) [drawing 8; R1=H; R3=SO3 H; R5=H] | 11
6 | Cc1cccc2c1NC(C(Cl)(Cl)Cl)OC2 (stereo not shown) [drawing 9; R1=CH3; R3=H; R11=H, 1,2-dihydro-8-methyl-2-trichloromethyl-4H-benzo[d]-[1,3]-oxazine] | 100
7 | CC(=O)Oc1ccc2c(c1)COC(C(Cl)(Cl)Cl)N2 (stereo not shown) [drawing 9; R1=H; R3=CH3 CO . O; R11=H, 6-acetoxy-1,2-dihydro-2-trichloromethyl-4H-benzo[d]-[1,3]-oxazine] | 30
8 | COC(=O)c1ccc2c(c1)COC(C(Cl)(Cl)Cl)N2 (stereo not shown) [drawing 9; R1=H; R3=CH3 O . CO; R11=H, methyl 1,2-dihydro-2-trichloromethyl-4H-benzo[d]-[1,3]-oxazine-6-carboxylate] | 100
9 | Clc1ccc2c(c1)COC(C(Cl)(Cl)Cl)N2 (stereo not shown) [drawing 9; R1=H; R3=Cl; R11=H, 6-chloro-1,2-dihydro-2-trichloromethyl-4H-benzo[d]-[1,3]-oxazine] | 100
10 | CCOC(=O)C1OC(C(Cl)(Cl)Cl)Nc2ccccc21 (stereo not shown) [drawing 9; R1=H; R3=H; R11=C2 H5 O . CO, ethyl 1,2-dihydro-2-trichloromethyl-4H-benzo[d]-[1,3]oxazine-4-carboxylate] | 24
11 | O=C(Nc1ccccc1)C1OC(C(Cl)(Cl)Cl)Nc2ccccc21 (stereo not shown) [drawing 9; R1=H; R3=H; R11=C6 H5 NH . CO, N-phenyl 1,2-dihydro-2-trichloromethyl-4H-benzo[d]-[1,3]-oxazine-4-carboxamide] | 57
12 | COC(=O)C1OC(C(Cl)(Cl)Cl)Nc2ccccc21 (stereo not shown) [drawing 9; R1=H; R3=H; R11=CH3 O . CO, methyl 1,2-dihydro-2-trichloromethyl-4H-benzo[d]-[1,3]-oxazine-4-carboxylate] | 46
13 | O=C(O)C1OC(C(Cl)(Cl)Cl)Nc2ccccc21 (stereo not shown) [drawing 9; R1=H; R3=H; R11=COOH, 1,2-dihydro-2-trichloromethyl-4H-benzo-[d]-[1,3]-oxazine-4-carboxylic acid] | 14
14 | CC(C)OC(=O)C1OC(C(Cl)(Cl)Cl)Nc2ccccc21 (stereo not shown) [drawing 9; R1=H; R3=H; R11=i-C3 H7 O . CO, isopropyl 1,2-dihydro-2-trichloromethyl-4H-benzo[d]-[1,3]-oxazine-4-carboxylate] | 37
15 | CCCOC(=O)C1OC(C(Cl)(Cl)Cl)Nc2ccccc21 (stereo not shown) [drawing 9; R1=H; R3=H; R11=n-C3 H7 O . CO, propyl 1,2-dihydro-2-trichloromethyl-4H-benzo[d]-[1,3]-oxazine-4-carboxylate] | 31
16 | CCCCOC(=O)C1OC(C(Cl)(Cl)Cl)Nc2ccccc21 (stereo not shown) [drawing 9; R1=H; R3=H; R11=n-C4 H9 O . CO, butyl 1,2-dihydro-2-trichloromethyl-4H-benzo[d]-[1,3]-oxazine-4-carboxylate] | 12
17 | CC(=O)N1C(=O)c2ccccc2N(C(C)=O)C1C(Cl)(Cl)Cl (stereo not shown) [drawing 10; R3=H; R5=CH3 CO; R6=CH3 CO, 1,3-diacetyl-1,2-dihydro-2-trichloromethylquinazolin-4-one] | 90

Same assay, conditions: at 3 μg./ml.; in vitro rumen fluid, 39° C., 15-16 hours; read-out: % Methane Inhibition (compounds indicated by *)

Row | Structure (SMILES) | inhibition at 3 µg/mL [%]
18 | CCOC(=O)c1ccc2c(c1)C(=O)NC(C(Cl)(Cl)Cl)N2 (stereo not shown) [drawing 10; R3=C2 H5 O . CO; R5=H; R6=H, ethyl 1,2-dihydro-4-oxo-2-trichloromethylquinazoline-6-carboxylate] | 71
19 | O=C(O)c1ccc2c(c1)C(=O)NC(C(Cl)(Cl)Cl)N2 (stereo not shown) [drawing 10; R3=COOH; R5=H; R6=H, 1,2-dihydro-4-oxo-2-trichloromethylquinazoline-6-carboxylic acid] | 5
